Experimental findings from ChEMBL document CHEMBL5113541, “Design, Synthesis, and Monoamine Oxidase B Selective Inhibitory Activity of N-Arylated Heliamine Analogues” (ACS Med Chem Lett, 2022) are described below.

Some results are limits rather than exact numbers.

Series [1] addresses T1, Amine oxidase [flavin-containing] A (Homo sapiens, UniProt P21397).
T1 sequence (P21397 whole entry): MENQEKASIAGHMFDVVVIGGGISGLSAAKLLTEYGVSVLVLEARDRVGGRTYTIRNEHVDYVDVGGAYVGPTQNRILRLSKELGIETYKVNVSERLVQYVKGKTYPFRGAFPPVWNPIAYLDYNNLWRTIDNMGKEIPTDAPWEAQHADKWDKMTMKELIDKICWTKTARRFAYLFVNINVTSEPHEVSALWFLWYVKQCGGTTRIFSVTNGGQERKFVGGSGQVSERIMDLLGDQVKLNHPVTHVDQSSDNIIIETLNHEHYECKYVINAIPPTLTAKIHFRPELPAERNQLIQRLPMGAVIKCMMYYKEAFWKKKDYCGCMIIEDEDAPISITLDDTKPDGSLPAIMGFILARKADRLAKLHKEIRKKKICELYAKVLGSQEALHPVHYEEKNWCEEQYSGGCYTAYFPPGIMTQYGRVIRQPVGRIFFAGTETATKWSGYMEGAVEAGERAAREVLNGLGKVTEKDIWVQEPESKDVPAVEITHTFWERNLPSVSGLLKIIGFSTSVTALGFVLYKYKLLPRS
Description: Inhibition of recombinant human MAO-A.

Series [2] concerns the target T2, Amine oxidase [flavin-containing] A (Mus musculus, UniProt Q64133).
T2 sequence (Q64133 whole entry): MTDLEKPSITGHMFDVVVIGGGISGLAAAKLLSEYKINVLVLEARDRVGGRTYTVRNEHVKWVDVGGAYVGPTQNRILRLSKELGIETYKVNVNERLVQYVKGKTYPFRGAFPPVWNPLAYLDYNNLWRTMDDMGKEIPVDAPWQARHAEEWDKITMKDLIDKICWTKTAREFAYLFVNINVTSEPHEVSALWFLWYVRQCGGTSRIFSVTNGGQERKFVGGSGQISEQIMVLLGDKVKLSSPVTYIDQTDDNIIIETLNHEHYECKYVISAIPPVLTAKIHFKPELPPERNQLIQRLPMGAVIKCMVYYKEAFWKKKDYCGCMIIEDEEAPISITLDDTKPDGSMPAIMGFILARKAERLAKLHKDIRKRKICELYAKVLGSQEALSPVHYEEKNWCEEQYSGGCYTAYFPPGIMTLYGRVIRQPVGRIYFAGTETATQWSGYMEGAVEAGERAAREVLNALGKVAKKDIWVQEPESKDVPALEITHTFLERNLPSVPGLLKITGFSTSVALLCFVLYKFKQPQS
Description: Inhibition of mouse MAO-A.

Series [3] addresses T3, Amine oxidase [flavin-containing] B (Mus musculus, UniProt Q8BW75).
T3 sequence (Q8BW75 whole entry): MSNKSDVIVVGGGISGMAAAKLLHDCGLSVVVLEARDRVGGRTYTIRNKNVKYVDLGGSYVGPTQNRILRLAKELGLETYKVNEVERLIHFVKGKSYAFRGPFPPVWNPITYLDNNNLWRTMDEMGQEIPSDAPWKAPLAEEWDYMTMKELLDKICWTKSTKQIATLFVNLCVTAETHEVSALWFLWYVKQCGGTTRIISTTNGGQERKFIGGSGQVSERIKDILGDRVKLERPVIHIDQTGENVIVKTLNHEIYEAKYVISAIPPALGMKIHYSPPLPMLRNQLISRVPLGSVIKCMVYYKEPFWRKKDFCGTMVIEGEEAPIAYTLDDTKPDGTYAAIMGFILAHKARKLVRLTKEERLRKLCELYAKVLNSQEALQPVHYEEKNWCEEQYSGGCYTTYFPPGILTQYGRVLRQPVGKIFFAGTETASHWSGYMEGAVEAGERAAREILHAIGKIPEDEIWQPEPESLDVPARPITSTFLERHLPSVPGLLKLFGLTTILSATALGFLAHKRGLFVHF
The experiment in a line: Inhibition of mouse MAO-B.

Series [4] has as its target T4, MAO-B (amine oxidase [flavin-containing] B) (Homo sapiens, UniProt P27338).
T4 sequence (P27338 whole entry): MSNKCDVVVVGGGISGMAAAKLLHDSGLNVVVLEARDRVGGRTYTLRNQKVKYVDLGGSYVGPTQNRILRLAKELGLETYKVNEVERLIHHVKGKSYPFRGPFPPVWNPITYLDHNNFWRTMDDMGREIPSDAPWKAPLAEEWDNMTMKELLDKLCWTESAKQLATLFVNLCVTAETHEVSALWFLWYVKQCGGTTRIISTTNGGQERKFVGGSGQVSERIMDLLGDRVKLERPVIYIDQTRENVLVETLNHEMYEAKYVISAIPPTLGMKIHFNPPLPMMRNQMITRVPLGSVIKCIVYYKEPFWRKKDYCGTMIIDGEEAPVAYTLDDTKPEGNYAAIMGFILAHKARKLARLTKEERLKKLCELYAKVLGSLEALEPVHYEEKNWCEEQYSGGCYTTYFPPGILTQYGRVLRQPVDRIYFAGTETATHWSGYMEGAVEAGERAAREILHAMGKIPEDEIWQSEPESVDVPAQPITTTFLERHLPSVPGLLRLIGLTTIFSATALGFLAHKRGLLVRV
Description: Inhibition of human MAO-B assessed as residual activity at 10 uM relative to control. The following applies: read-out: Activity.

As to `COc1cc2c(cc1OC)CN(CCCOc1ccc(C(C)=O)c(O)c1)CC2`, the IC50 in series [1] was 8.1 µM.

In the case of `COc1cc2c(cc1OC)CNCC2`, the figures for the IC50 in series [2] and in series [3] were above 100 µM and above 1000 µM, respectively. Further, the activity at 10 µM in series [4] was found to be 96%.
